One series deals with T1, human α2C receptor (Homo sapiens, UniProt P18825).
T1 construct: expressed in transfected cells; host or cells: CHO cells, also recombinantly expressing chimeric G protein Gαqi3 and mitochondrial obelin (mtOb)
T1 sequence (P18825 1-462): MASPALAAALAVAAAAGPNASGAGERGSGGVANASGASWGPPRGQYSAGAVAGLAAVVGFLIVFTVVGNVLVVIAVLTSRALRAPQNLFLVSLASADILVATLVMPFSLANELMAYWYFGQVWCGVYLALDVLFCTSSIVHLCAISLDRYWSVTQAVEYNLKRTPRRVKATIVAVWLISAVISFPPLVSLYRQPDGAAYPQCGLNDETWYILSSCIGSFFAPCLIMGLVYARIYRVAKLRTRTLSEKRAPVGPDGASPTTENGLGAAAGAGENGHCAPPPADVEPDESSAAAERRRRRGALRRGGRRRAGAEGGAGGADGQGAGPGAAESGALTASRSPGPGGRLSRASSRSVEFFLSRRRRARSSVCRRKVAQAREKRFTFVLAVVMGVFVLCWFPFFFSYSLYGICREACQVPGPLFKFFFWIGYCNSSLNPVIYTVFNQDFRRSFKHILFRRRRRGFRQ
The experiment in a line: Antagonism against the adrenoreceptor α2C (luminescence, recombinant CHO cell line). Format: cell-based. The following applies: antagonism against adrenoreceptor α2C; noradrenaline 20 nM; tested up to 10 μM; read-out: IC50. Summed up:
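CHO cells expressing human α2C receptor with chimeric Gαqi3 and mitochondrial obelin, loaded with 2.5 μg/ml coelenterazine for one day at 30 °C.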

The subject of series [1] is diabetic (ZDFfa/fa) and healthy rats (Wistar). The experiment in a line: Assay of perfusion-enhancing substances (microcirculation), laser doppler at the paw. Format: in vivo, rat. Conditions: single oral dose. An excerpt: In diabetic (ZDFfa/fa) and healthy rats (Wistar), a laser doppler probe was fastened under anaesthesia conditions (isoflurane anaesthesia) at the sole of the paw for measuring cutaneous microcirculation. The test animals were once treated orally with the test substances. During the experiment, microperfusion and temperature of the lower extremities were documented continuously. Here, a temperature-sensitive laser doppler probe (Periflux, O2C) was fastened with adhesive to the paws of the animals, allowing the measurement of microperfusion and skin temperature. The microcirculation measurement values were measured on both paws 30 min after oral administration of the test substance. […] Also stated is the MED for the significant increase of skin temperature (ttest).

The test system of the next series is adult female Wistar rats. Nature of the series: Radiotelemetric measurement of blood pressure and heart rate of conscious rats. Format: in vivo, rat. The following applies: 10 mg/kg, oral, telemetry over 24 hours. An excerpt: A commercially available telemetry system from Data Sciences International DSI, USA, was employed for the measurements on conscious rats described below. The system consists of 3 main components: (1) implantable transmitters (Physiotel® telemetry transmitter), (2) receivers (Physiotel® receiver), which are linked via a multiplexer (DSI Data Exchange Matrix) to a (3) data acquisition computer. The telemetry system makes it possible to continuously record blood pressure, heart rate and body motion of conscious animals in their usual habitat.
The studies were conducted on adult female Wistar rats with a body weight of >200 g. After transmitter implantation, the experimental animals were housed singly in type III Makrolon® cages. They had free access to standard feed and water. The day/night rhythm in the test laboratory was set by changing the illumination of the room.
The telemetry transmitters used (PA-C40, DSI) were surgically implanted under aseptic conditions in the experimental animals at least 14 days before the first experimental use.
For the implantation, the fasted animals were anaesthetized with isoflurane (IsoFlo®, Abbott, initiation 5%, maintenance 2%) and shaved and disinfected over a large area of their abdomens. […]
Each of the instrumented rats living in the system was assigned a separate receiving antenna (RPC-1 Receiver, DSI). […] The signals emitted were detected online by a data acquisition system (Dataquest™ A.R.T. for Windows, DSI) and processed accordingly.
In the standard procedure, the following were measured for 10-second periods in each case: (1) systolic blood pressure (SBP), (2) diastolic blood pressure (DBP), (3) mean arterial pressure (MAP), (4) heart rate (HR) and (5) activity (ACT). These parameters were measured over 24 hours after administration.
The acquisition of measurements was repeated under computer control at 5-minute intervals. The source data obtained as absolute values were corrected in the diagram with the currently measured barometric pressure (Ambient Pressure Reference Monitor, APR-1, DSI). […]

Here are results for twelve compounds from US20160318866A1, “SUBSTITUTED BIPIPERIDINYL DERIVATIVES” (Bayer Pharma Aktiengesellschaft, priority 2013, published 2016).

Structures are written as SMILES. Counter-ions that a name gives are not always drawn.

Regarding `Cc1cccnc1CNC(=O)c1ccc(C(=O)N2CCC(C3CCCC(C)C3)CC2)cc1` (stereo not drawn) [Example 74, 4-{[4-(3-Methylcyclohexyl)piperidin-1-yl]carbonyl}-N-[(3-methylpyridin-2-yl)methyl]benzamide trifluoroacetic acid salt], the half-maximal inhibitory concentration (IC50) at human α2C receptor worked out at 155 nM. The same measure, in the same setting: then `CC1CCCN(C2CCN(C(=O)c3ccc(C(=O)N(C)C4CCCCC4)cc3)CC2)C1` (stereo not drawn) [Example 49, N-cyclohexyl-N-methyl-4-[(3-methyl-1,4′-bipiperidin-1′-yl)carbonyl] benzamide], with 348 nM; and `CCC1CCCN(C2CCN(C(=O)c3ccc(C(C)(C)O)cc3)CC2)C1` (stereo not drawn) [Example 114, [3-Ethyl-1,4′-bipiperidin-1′-yl][4-(2-hydroxypropan-2-yl)phenyl]methanone], with 72 nM; and `CCc1nc(C2CCCN(C3CCN(C(=O)c4ccc(C(C)(C)O)cc4)CC3)C2)n[nH]1` (stereo not drawn) [Example 62, [3-(5-Ethyl-1H-1,2,4-triazol-3-yl)-1,4′-bipiperidin-1′-yl][4-(2-hydroxypropan-2-yl)phenyl]methanone], with 154 nM. On the same count and under the same terms, then `C[C@@H]1CCCN(C2CCN(C(=O)c3ccc(C(=O)NC(CCO)c4ccccc4F)cc3)CC2)C1` (stereo partly drawn) [Example 89, N-[1-(2-Fluorophenyl)-3-hydroxypropyl]-4-{[(3R)-3-methyl-1,4′-bipiperidin-1′-yl]carbonyl}benzamide trifluoroacetic acid salt], with 17 nM; and `COCC(C)NC(=O)c1ccc(C(=O)N2CCC(N3CCCC(C)C3)CC2)cc1` (stereo not drawn) [Example 55, N-(1-methoxypropan-2-yl)-4-[(3-methyl-1,4′-bipiperidin-1′-yl)carbonyl]benzamide], with 330 nM. Turning to `CC(C)(O)c1ccc(C(=O)N2CCC(N3CCCC(OCCOC(F)(F)F)C3)CC2)cc1` (stereo not drawn) [Example 127, [4-(2-Hydroxypropan-2-yl)phenyl]{3-[2-(trifluoromethoxy)ethoxy]-1,4′-bipiperidin-1′-yl}methanone], on human α2C receptor, the 50% inhibitory concentration (IC50) is 154 nM. The same measure, in the same setting: then `C[C@@H]1CCCN(C2CCN(C(=O)c3ccc(C(=O)NCc4cc(C(F)(F)F)c(Cl)cn4)cc3)CC2)C1` [Example 92, N-{[5-Chloro-4-(trifluoromethyl)pyridin-2-yl]methyl}-4-{[(3R)-3-methyl-1,4′-bipiperidin-1′-yl]carbonyl}benzamide], with 160 nM; and `CCOCc1ccc(C(=O)N2CCC(N3CCCC(C)C3)CC2)cc1` (stereo not drawn) [Example 13, [4-(Ethoxymethyl)phenyl](3-methyl-1,4′-bipiperidin-1′-yl)methanone], with 267 nM; and `C[C@@H]1CCCN(C2CCN(C(=O)c3ccc(C(=O)NC(c4ccc(C(F)(F)F)cc4)C(F)(F)F)cc3)CC2)C1` (stereo partly drawn) [Example 85, 4-{[(3R)-3-Methyl-1,4′-bipiperidin-1′-yl]carbonyl}-N-{2,2,2-trifluoro-1-[4-(trifluoromethyl)phenyl]ethyl}benzamide trifluoroacetic acid salt], with 200 nM. Regarding `COC[C@@]1(C)CCCN2CCc3c(oc4ccccc34)[C@@H]21` [ORM-12741, reference compound], the “factor by which microcirculation is improved at this dose compared to placebo” value in series [1] (at the MED, 30 min after administration) is listed as 1.9 x. For the same compound, in series [1] (minimum effective dose for significant increase of skin temperature (ttest)), the “MED [mg/kg] skin temperature” value came to 0.01 mg/kg. Also, in series [1] (minimum effective dose for significantly improved microcirculation vs placebo, 30 min after administration), the “MED [mg/kg] microcirculation” value turned out to be 0.1 mg/kg. In addition, the blood pressure entry in the series on adult female Wistar rats is “additional reduction in blood pressure”.

For `CC(c1ccccc1)N(C)C(=O)c1ccc(C(=O)N2CCC(N3CCC[C@@H](C)C3)CC2)cc1` (stereo partly drawn) [Example 43, N-Methyl-4-{[(3R)-3-methyl-1,4′-bipiperidin-1′-yl]carbonyl}-N-(1-phenylethyl)benzamide], the IC50 on human α2C receptor is 39 nM.

What is called IC50 is the midpoint of a concentration-inhibition curve.
